Measurements: patent US20250250646A1, “DUAL GENETIC REPORTERS IN HUMAN PLURIPOTENT CELLS FOR USE AS ALTERNATIVE TO MOUSE EMBRYO ASSAY” (Nexpring US Opco Inc., priority 2022, published 2025)

Key:
SOX2-snLuc cells = details: MEAlt assays; low levels of adulterant
From the text: (§1) To perform this assay, cells from the cell lines described in Example 1 were thawed using standard procedures and plated on Vitronectin coated wells of a 96-well plate in Essential 8 Flex medium with Revitacell supplement. Plating density for SOX2-snLuc cells was approximately 20,000 cells per well and for the CGA-snLuc cells, approximately 15,000 cells per well. Empty wells were filled with PBS to reduce variation in Nanoluciferase concentration related to evaporation. Cells were allowed to recover for 7-18 hours prior to exposure to test media.
For SOX2-snLuc cells the test media was Essential 8 Flex.
Following recovery from thawing, media was exchanged to the respective test medium for each cell line. […] In the case of SOX2-snLuc cells, a baseline read of Luciferase expression was optionally performed prior to media exchange to assess variations in plating density or post-thaw recovery. Exposure to test medium was for 24-96 hours for SOX2-snLuc cells and 48-96 hours for CGA-snLuc cells. Secreted Nanoluciferase was detected by removing 10% of the culture media and mixing in a white assay plate with substrate and buffer using the Promega Nano-Glo Luciferase Assay kit. Luminescence was measured with a BioTek Cytation 1 imaging reader.
The assay was also tested in the context of detecting an adulterant, ethylene glycol (EG), that is known to affect viability of mouse embryos.

CGA-snLuc cells = details: MEAlt assays; low levels of adulterant
From the text: as §1
For CGA-snLuc cells the activation of the reporter required medium that supported trophectoderm/placental differentiation, such as BAP medium. […] DAF-BAP contained DMEM with 25 mM HEPES and 4.5 g/L Glucose and without L-Glutamine, 100 ng/ml BMP-4, 1 μM A83-01, 0.1 μM PD173074, 5 mg/mL of AlbumiNZ Bovine Albumin Low Free Fatty Acid, and 40 μM forskolin. Media was pre-warmed prior to forskolin addition to prevent precipitation.
Following recovery from thawing, media was exchanged to the respective test medium for each cell line. […] Secreted Nanoluciferase was detected by removing 10% of the culture media and mixing in a white assay plate with substrate and buffer using the Promega Nano-Glo Luciferase Assay kit. Luminescence was measured with a BioTek Cytation 1 imaging reader. […]

Molecule	detection of adulterant by the MEAlt assay (SOX2-snLuc cells)	detection of adulterant by the MEAlt assay (CGA-snLuc cells)
C=O [formaldehyde]	successfully detect low levels	successfully detect low levels
triton-x-100	successfully detect low levels	successfully detect low levels
